Molecular target: H3/HK68 HA (Influenza A virus, UniProt Q91MA7)
Sequence (Q91MA7 27-521 limits assumed): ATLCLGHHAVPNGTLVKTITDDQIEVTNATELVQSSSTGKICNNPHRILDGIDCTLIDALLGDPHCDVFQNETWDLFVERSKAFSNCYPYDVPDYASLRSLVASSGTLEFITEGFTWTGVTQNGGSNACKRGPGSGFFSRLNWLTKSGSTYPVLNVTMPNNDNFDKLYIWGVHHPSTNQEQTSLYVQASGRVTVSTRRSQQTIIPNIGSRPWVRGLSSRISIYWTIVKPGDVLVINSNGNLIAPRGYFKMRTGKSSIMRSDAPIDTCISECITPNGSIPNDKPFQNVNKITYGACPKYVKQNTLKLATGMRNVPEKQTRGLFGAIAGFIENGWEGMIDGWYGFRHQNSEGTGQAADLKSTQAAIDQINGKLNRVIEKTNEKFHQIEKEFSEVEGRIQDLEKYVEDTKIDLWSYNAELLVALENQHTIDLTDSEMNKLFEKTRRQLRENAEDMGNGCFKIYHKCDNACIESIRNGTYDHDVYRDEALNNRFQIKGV

SMILES | melting temperature of H3/HK68 HA
O=C(c1ccc(Cl)cc1Cl)N1CCO[C@@H](c2ccccc2)C1 [F0045(S)] | does not change
O=C(c1ccc(Cl)cc1Cl)N1CCO[C@H](c2ccccc2)C1 [F0045(R)] | does not change
